Results published in the OligoGym collection.
Several values for one entry are separate records, joined by “and”; a condition that tells them apart may be missing. Identical values can stand only once. After the bases stand the sugars from the 5' end (letter, count) and the backbone: PS all phosphorothioate, else s phosphorothioate and o phosphodiester by linkage. Methylation of C is not given here. e = 2'-O-(2-methoxyethyl) (MOE); k = constrained ethyl (cEt); d = 2'-deoxy (DNA)

Molecular target: IRF4
Conditions: ASO

Row | Sequence | target mRNA inhibition (SK-MEL-28, 4 µM) | target mRNA inhibition (MM.1R, 1 µM) | also measured
1 | CTTGCCGCTGTCGATC (sugars k4 d8 k4, PS) | 42% |  | 
2 | CTTGGCTGTGGGATGC (sugars k3 d10 k3, PS) |  | 21% | 
3 | CTTGGTCAATTTTCAC (sugars k3 d10 k3, PS) | 53% |  | 
4 | CTTGTCTCCCCCAGAG (sugars k3 d10 k3, PS) | 3% |  | 
5 | CTTGTCTCGCCGCAAT (sugars k3 d10 k3, PS) | 65% and 47% |  | 
6 | CTTTACACAGTTCTAA (sugars k3 d10 k3, PS) | -13% |  | 
7 | CTTTAGTGTCGCCATG (sugars k3 d10 k3, PS) | 29% |  | 
8 | CTTTATAGTAGGTAAG (sugars k3 d10 k3, PS) |  | -1% | 
9 | CTTTCCCATGGTTACT (sugars k3 d10 k3, PS) |  | 8% | 
10 | CTTTGAAGTGCTGTGT (sugars k3 d10 k3, PS) | 16% |  | 
11 | CTTTGAGGCTGCGAAG (sugars k3 d10 k3, PS) |  | 2% | 
12 | CTTTGATGAGCAGATC (sugars k3 d10 k3, PS) | 12% |  | 
13 | CTTTTTTGGCTCCCTC (sugars k4 d8 k4, PS) | 46% |  | target mRNA inhibition (MM.1R, 0.074 µM): -3%; target mRNA inhibition (MM.1R, 0.222 µM): -3%; target mRNA inhibition (MM.1R, 0.666 µM): 9%; target mRNA inhibition (MM.1R, 2 µM): 25%; target mRNA inhibition (SK-MEL-28, 0.185 µM): 4% and 9% and 8%; target mRNA inhibition (SK-MEL-28, 5 µM): 45% and 42% and 62%; target mRNA inhibition (SK-MEL-28, 15 µM): 63% and 68% and 81%
14 | GAAAACTCTAACCCTA (sugars k3 d10 k3, PS) | 9% |  | 
15 | GAAAAGAGCCGCCACA (sugars k3 d10 k3, PS) | 7% |  | 
16 | GAAACAGAGACGCGGT (sugars k3 d10 k3, PS) | 1% |  | 
17 | GAAACCCTCATCACCG (sugars k3 d10 k3, PS) |  | -38% | 
18 | GAAACGAGTTGACACA (sugars k3 d10 k3, PS) |  | 0% | 
19 | GAAAGAGGCACCCTCC (sugars k3 d10 k3, PS) | 19% |  | 
20 | GAAATATACCAGCTCA (sugars k3 d10 k3, PS) | 61% |  | 
21 | GAAATGAACCCTAAGT (sugars k3 d10 k3, PS) |  | -5% | 
22 | GAAATGGAGCATCCGC (sugars k3 d10 k3, PS) | 32% |  | 
23 | GAAATGTCAAACCCTA (sugars k3 d10 k3, PS) | 71% |  | 
24 | GAACACACCAGGTTAA (sugars k3 d10 k3, PS) | -2% |  | 
25 | GAACGCACGGACGAAC (sugars k3 d10 k3, PS) | 18% |  | 

Row | Sequence | target mRNA inhibition (SK-MEL-28, 4 µM) | target mRNA inhibition (MM.1R, 1 µM) | also measured
26 | GAAGAATAAACACCCC (sugars k3 d10 k3, PS) | 52% |  | 
27 | GAAGAGATCAGCTGCC (sugars k3 d10 k3, PS) | 42% |  | 
28 | GAAGCATTTTATCATC (sugars k3 d10 k3, PS) |  | 4% | 
29 | GAAGCATTTTATCATC (sugars kkddddddddddkeke, PS) |  | -7% | 
30 | GAAGCATTTTATCATC (sugars kkdddddddddekeke, PS) |  | 6% | 
31 | GAAGCATTTTATCATC (sugars kkdddddddddkdkdk, PS) |  | 1% | 
32 | GAAGGATGATCAGCTT (sugars k3 d10 k3, PS) | 26% |  | 
33 | GAAGTTTACACTGGAT (sugars e1 k2 d9 k2 e2, PS) |  | 48% | 
34 | GAAGTTTACACTGGAT (sugars k3 d9 k3 e1, PS) |  | 45% | 
35 | GAAGTTTACACTGGAT (sugars k3 d10 k3, PS) | 65% |  | 
36 | GAAGTTTACACTGGAT (sugars kddddddddddkekek, PS) |  | 27% | 
37 | GAAGTTTACACTGGAT (sugars kkkddddddddkekek, PS) |  | 52% | 
38 | GAATAGAGGAATGGCG (sugars k3 d10 k3, PS) | 39% |  | 
39 | GAATAGGAAGATATCA (sugars k3 d10 k3, PS) | 6% |  | 
40 | GAATAGGACCCCTATC (sugars k3 d10 k3, PS) |  | -3% | 
41 | GAATTTCAGGAGCTAG (sugars k3 d10 k3, PS) | 61% |  | 
42 | GAATTTCCATTGGAGG (sugars k3 d10 k3, PS) | 43% |  | 
43 | GACAAGTGCTAGGATT (sugars k3 d10 k3, PS) | 61% |  | 
44 | GACACTTTTAGAGAGG (sugars e1 k2 d9 k2 e2, PS) |  | 24% | 
45 | GACACTTTTAGAGAGG (sugars k3 d9 k3 e1, PS) |  | 24% | 
46 | GACACTTTTAGAGAGG (sugars kkdddddddddkekek, PS) |  | 17% | 
47 | GACACTTTTAGAGAGG (sugars kkkdddddddddkeke, PS) |  | 24% | 
48 | GACAGAAGATCTCTAC (sugars k3 d10 k3, PS) | 17% |  | 
49 | GACAGAGAGTCCGACG (sugars k3 d10 k3, PS) | -1% |  | 
50 | GACAGATGGCATGCGA (sugars k3 d10 k3, PS) |  | 16% | 

Row | Sequence | target mRNA inhibition (SK-MEL-28, 4 µM) | target mRNA inhibition (MM.1R, 1 µM) | also measured
51 | GACAGCATAGCATTAT (sugars k3 d10 k3, PS) | 72% and 77% |  | 
52 | GACAGTGACTTGCATC (sugars k2 d9 e3 k2, PS) |  | 24% | 
53 | GACAGTGACTTGCATC (sugars k3 d10 k3, PS) |  | 24% | 
54 | GACAGTGACTTGCATC (sugars kkdddddddddekeke, PS) |  | 30% | 
55 | GACATACCTACAAGCA (sugars k3 d10 k3, PS) | 50% |  | 
56 | GACATTACTAGATTGT (sugars k3 d10 k3, PS) | 70% |  | 
57 | GACCACGCCCCTCTCC (sugars k3 d10 k3, PS) | 55% |  | 
58 | GACCAGCTTTTTCAAA (sugars k3 d10 k3, PS) | 38% |  | 
59 | GACCATCTGATCCGGA (sugars k3 d10 k3, PS) |  | 2% | 
60 | GACCTTTACTTCATTC (sugars k3 d10 k3, PS) | 52% |  | 
61 | GACGAAAACAGCCGCC (sugars k3 d10 k3, PS) | 62% |  | 
62 | GACTAACTCTCCTGTT (sugars k3 d10 k3, PS) | 17% |  | 
63 | GACTATTAGATAAGTA (sugars k3 d10 k3, PS) | 29% |  | 
64 | GACTTAACCCACATCA (sugars k3 d10 k3, PS) | -166% |  | 
65 | GACTTAATTCTGGGTT (sugars k3 d10 k3, PS) | 35% |  | 
66 | GAGAATTCCAAACCTT (sugars k3 d10 k3, PS) | 76% | 15% | target mRNA inhibition (MM.1R, 0.0625 µM): 6%; target mRNA inhibition (MM.1R, 0.074 µM): 1%; target mRNA inhibition (MM.1R, 0.222 µM): 13%; target mRNA inhibition (MM.1R, 0.25 µM): 5%; target mRNA inhibition (MM.1R, 0.666 µM): 38%; target mRNA inhibition (MM.1R, 2 µM): 69%; target mRNA inhibition (MM.1R, 4 µM): 55%
67 | GAGAGCTACGCAATCT (sugars k3 d10 k3, PS) | 57% |  | 
68 | GAGAGTAAACTTGGCT (sugars k3 d10 k3, PS) |  | 12% | 
69 | GAGATAAGAAGCACTG (sugars k3 d10 k3, PS) | 44% |  | 
70 | GAGATACTTGTACTGT (sugars k3 d10 k3, PS) |  | 49% and 57% | target mRNA inhibition (MM.1R, 0.0625 µM): -2%; target mRNA inhibition (MM.1R, 0.25 µM): 18%; target mRNA inhibition (MM.1R, 4 µM): 84%
71 | GAGATATAAATAGCTG (sugars k3 d10 k3, PS) | 51% |  | 
72 | GAGCAAATTGAGACCA (sugars k3 d10 k3, PS) | 55% |  | 
73 | GAGCAGAACGAGGTAA (sugars k3 d10 k3, PS) | 55% |  | 
74 | GAGCATCACTATTAAG (sugars k3 d10 k3, PS) |  | 14% | 
